Data: US20250197387A1, “BCL-XL DEGRADERS AND USES THEREOF” (Kymera Therapeutics, Inc., priority 2021, published 2025)

Biological target: T1, BCL-XL (Homo sapiens, UniProt Q07817)
T1 construct: endogenous in cells; host or cells: MOLT-4
Assay: Bcl-xL ELISA degradation in MOLT-4 cells, 6 h
Type: cell-based
Settings: for DC50: read-out: Bcl-xL ELISA in MOLT-4 degradation 6 h: Mean external-Abs DC50
Method: The letter codes for BCL-XL DC50 include: A (<0.01 μM); B (0.01-0.1 μM); C (>[…]); D (>0.5-1.0 μM); and E (>1.0 μM). The letter codes for Dmax % include A (>75%); B (50 to 75%); C (<50%).

T1 sequence (Q07817 whole entry): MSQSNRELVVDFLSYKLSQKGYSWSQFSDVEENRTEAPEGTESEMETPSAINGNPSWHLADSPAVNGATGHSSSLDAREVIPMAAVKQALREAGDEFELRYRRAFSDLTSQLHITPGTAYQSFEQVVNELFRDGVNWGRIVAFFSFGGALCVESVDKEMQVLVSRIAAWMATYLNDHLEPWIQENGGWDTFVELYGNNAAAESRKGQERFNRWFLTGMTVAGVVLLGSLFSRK

Compound	Dmax	DC50
Cc1ncsc1-c1ccc([C@H](C)NC(=O)[C@@H]2C[C@@H](O)CN2C(=O)[C@H](c2cc(N3CC4(CN(c5ccc(S(=O)(=O)NC(=O)c6nc(N7CCc8cccc(C(=O)Nc9nc%10ccccc%10s9)c8C7)ccc6-c6cnn(CC7CCCCC7)c6C)cc5)C4)C3)no2)C(C)C)cc1 [I-225]	50 to 75%	10 to 100 nM
Cc1ncsc1-c1ccc(CNC(=O)[C@@H]2C[C@@H](O)CN2C(=O)[C@@H](NC(=O)C2(F)CC2)C(C)(C)C)c(OCCCC(=O)N2CCN(CC#Cc3ccc(OCCCc4sc(N5CCc6cccc(C(=O)Nc7nc8ccccc8s7)c6C5)nc4C(=O)O)c(F)c3)CC2)c1 [I-223]	50 to 75%	10 to 100 nM
Cc1ncsc1-c1ccc([C@H](C)NC(=O)[C@@H]2C[C@@H](O)CN2C(=O)C(c2cc(OC3CCN(CCCCNC(=O)c4nc(N5CCc6cccc(C(=O)Nc7nc8ccccc8s7)c6C5)ccc4-c4cnn(CC5CCCCC5)c4C)CC3)no2)C(C)C)cc1 (stereo partly shown) [I-233]	< 50%	> 1000 nM
Cc1ncsc1-c1ccc([C@H](C)NC(=O)[C@@H]2C[C@@H](O)CN2C(=O)[C@@H](NC(=O)N2CCC(N3CCN(C(=O)c4nc(N5CCc6cccc(C(=O)Nc7nc8ccccc8s7)c6C5)ccc4-c4cnn(CC5CCCCC5)c4C)CC3)CC2)C(C)(C)C)cc1 [I-247]	< 50%	> 1000 nM
Cc1ncsc1-c1ccc([C@H](C)NC(=O)[C@@H]2C[C@@H](O)CN2C(=O)[C@@H](NC(=O)C2CCN(c3ncc(S(=O)(=O)NC(=O)c4nc(N5CCc6cccc(C(=O)Nc7nc8ccccc8s7)c6C5)ccc4-c4cnn(CC5CCCCC5)c4C)cn3)CC2)C(C)(C)C)cc1 [I-250]	> 75%	10 to 100 nM
Cc1ncsc1-c1ccc([C@H](C)NC(=O)[C@@H]2C[C@@H](O)CN2C(=O)[C@@H](NC(=O)N2CCN(CC#Cc3ccc(OCCCc4sc(N5CCc6cccc(C(=O)Nc7nc8ccccc8s7)c6C5)nc4C(=O)O)c(F)c3)CC2)C(C)(C)C)cc1 [I-73]	< 50%	–
C#Cc1ccc([C@H](CO)NC(=O)[C@@H]2C[C@@H](O)CN2C(=O)C(c2cc(OC3CCN(CCCS(=O)(=O)NC(=O)c4nc(N5CCc6cccc(C(=O)Nc7nc8ccccc8s7)c6C5)ccc4-c4cnn(CC5CCCCC5)c4C)CC3)no2)C(C)C)cc1 (stereo partly shown) [I-228]	50 to 75%	100 to 500 nM
Cc1ncsc1-c1ccc(CNC(=O)[C@@H]2C[C@@H](O)CN2C(=O)[C@@H](NC(=O)C2(F)CC2)C(C)(C)C)c(OC2CCN(CC3CCN(C(=O)c4nc(N5CCc6cccc(C(=O)Nc7nc8ccccc8s7)c6C5)ccc4-c4cnn(CC5CCCCC5)c4C)CC3)CC2)c1 [I-227]	< 50%	> 1000 nM
C#Cc1ccc([C@H](CO)NC(=O)[C@@H]2C[C@@H](O)CN2C(=O)[C@@H](NC(=O)C2CCN(c3ccc(S(=O)(=O)NC(=O)c4nc(N(C)c5cc(C)c(Nc6nc7ccccc7s6)nn5)ccc4-c4cnn(CC5(CC)CC6CC(C)CC(C6)C5)c4C)cc3)CC2)C(C)(C)C)cc1 (stereo partly shown) [I-245]	> 75%	10 to 100 nM
Cc1ncsc1-c1ccc([C@H](C)NC(=O)[C@@H]2C[C@@H](O)CN2C(=O)[C@@H](NC(=O)C2CC3CCC(C2)N3c2ccc(S(=O)(=O)NC(=O)c3nc(N4CCc5cccc(C(=O)Nc6nc7ccccc7s6)c5C4)ccc3-c3cnn(CC4CCCCC4)c3C)cc2)C(C)(C)C)cc1 (stereo partly shown) [I-278]	> 75%	10 to 100 nM
Cc1ncsc1-c1ccc([C@H](C)NC(=O)[C@@H]2C[C@@H](O)CN2C(=O)C(c2cc(N3CC(CN4CCC(NC(=O)c5nc(N6CCc7cccc(C(=O)Nc8nc9ccccc9s8)c7C6)ccc5-c5cnn(CC6CCCCC6)c5C)CC4)C3)no2)C(C)C)cc1 (stereo partly shown) [I-239]	< 50%	–
Cc1ncsc1-c1ccc([C@H](C)NC(=O)[C@@H]2C[C@@H](O)CN2C(=O)[C@@H](NC(=O)CCCCN(C)CCCS(=O)(=O)NC(=O)c2nc(N3CCc4cccc(C(=O)Nc5nc6ccccc6s5)c4C3)ccc2-c2cnn(CC3CCCCC3)c2C)C(C)(C)C)cc1 [I-232]	50 to 75%	100 to 500 nM
Cc1ncsc1-c1ccc([C@H](C)NC(=O)[C@@H]2C[C@@H](O)CN2C(=O)[C@@H](NC(=O)C2CCN(c3ccc(S(=O)(=O)NC(=O)c4nc(N5CCc6cccc(C(=O)Nc7nc8ccccc8s7)c6C5)ccc4-c4cnn(CC(C)C)c4C)cc3)CC2)C(C)(C)C)cc1 [I-240]	> 75%	10 to 100 nM
Cc1ncsc1-c1ccc([C@H](C)NC(=O)[C@@H]2C[C@@H](O)CN2C(=O)[C@@H](NC(=O)N2CCC3(CCN(CC#Cc4ccc(OCCCc5sc(N6CCc7cccc(C(=O)Nc8nc9ccccc9s8)c7C6)nc5C(=O)O)c(F)c4)CC3)CC2)C(C)(C)C)cc1 [I-71]	< 50%	–

Second part, the molecule after the results:

Dmax	DC50	Compound
< 50%	> 1000 nM	Cc1cc([C@@H](C(=O)N2C[C@H](O)C[C@H]2C(=O)NCc2ccc(-c3scnc3C)cc2OCCN2CCN(C(=O)c3nc(N4CCc5cccc(C(=O)Nc6nc7ccccc7s6)c5C4)ccc3-c3cnn(CC4CCCCC4)c3C)CC2)C(C)C)on1 [I-267]
50 to 75%	100 to 500 nM	Cc1cc([C@@H](C(=O)N2C[C@H](O)C[C@H]2C(=O)NCc2ccc(-c3scnc3C)cc2OCCN(C)C2CCN(C(=O)c3nc(N4CCc5cccc(C(=O)Nc6nc7ccccc7s6)c5C4)ccc3-c3cnn(CC4CCCCC4)c3C)CC2)C(C)C)on1 [I-266]
50 to 75%	100 to 500 nM	Cc1ncsc1-c1ccc([C@H](C)NC(=O)[C@@H]2C[C@@H](O)CN2C(=O)[C@@H](NC(=O)C2CCN(c3ccc(S(=O)(=O)NC(=O)c4nc(N5CCc6cccc(C(=O)Nc7nc8ccccc8s7)c6C5)ccc4-c4cnn(CC5(CCC(=O)O)CCCCC5)c4C)cc3)CC2)C(C)(C)C)cc1 [I-255]
50 to 75%	10 to 100 nM	C#Cc1ccc(CNC(=O)[C@@H]2C[C@@H](O)CN2C(=O)[C@@H](c2cc(N3CCN(c4ccc(S(=O)(=O)NC(=O)c5nc(N6CCc7cccc(C(=O)Nc8nc9ccccc9s8)c7C6)ccc5-c5cnn(CC6CCCCC6)c5C)cc4)CC3)no2)C(C)C)c(OC)c1 [I-263]
> 75%	< 10 nM	Cc1cc(S(=O)(=O)NC(=O)c2nc(N3CCc4cccc(C(=O)Nc5nc6ccccc6s5)c4C3)ccc2-c2cnn(CC3CCCCC3)c2C)ccc1N1CCC(C(=O)N[C@H](C(=O)N2C[C@H](O)C[C@H]2C(=O)N[C@@H](C)c2ccc(-c3scnc3C)cc2)C(C)(C)C)CC1 [I-273]
50 to 75%	100 to 500 nM	Cc1ncsc1-c1ccc([C@H](C)NC(=O)[C@@H]2C[C@@H](O)CN2C(=O)[C@@H](NC(=O)C2CCN(c3ccc(S(=O)(=O)NC(=O)c4nc(N5CCc6cccc(C(=O)Nc7nc8ccccc8s7)c6C5)ccc4-c4cnn(CC5CCOCC5)c4C)cc3)CC2)C(C)(C)C)cc1 [I-260]
> 75%	< 10 nM	C#Cc1ccc(CNC(=O)[C@@H]2C[C@@H](O)CN2C(=O)[C@@H](NC(=O)C2CCN(c3ccc(S(=O)(=O)NC(=O)c4nc(N5CCc6cccc(C(=O)Nc7nc8ccccc8s7)c6C5)ccc4-c4cnn(CC5CCCCC5)c4C)cc3)CC2)C(C)(C)C)c(OC)c1 [I-254]
50 to 75%	10 to 100 nM	Cc1cc([C@@H](C(=O)N2C[C@H](O)C[C@H]2C(=O)NCc2ccc(-c3scnc3C)cc2OCCCCCCN(C)C(=O)c2nc(N3CCc4cccc(C(=O)Nc5nc6ccccc6s5)c4C3)ccc2-c2cnn(CC3CCCCC3)c2C)C(C)C)on1 [I-264]
> 75%	< 10 nM	C#Cc1ccc(CNC(=O)[C@@H]2C[C@@H](O)CN2C(=O)[C@@H](c2cc(N3CCN(c4ccc(S(=O)(=O)NC(=O)c5nc(N6CCc7cccc(C(=O)Nc8nc9ccccc9s8)c7C6)ccc5-c5cnn(CC6CCCCC6)c5C)cc4)CC3)no2)C(C)C)cc1 [I-262]
< 50%	> 1000 nM	Cc1ncsc1-c1ccc(CNC(=O)[C@@H]2C[C@@H](O)CN2C(=O)[C@@H](NC(=O)C2(F)CC2)C(C)(C)C)c(N2CCC(N3CCC(NC(=O)c4nc(N5CCc6cccc(C(=O)Nc7nc8ccccc8s7)c6C5)ccc4-c4cnn(CC5CCCCC5)c4C)CC3)CC2)c1 [I-270]
50 to 75%	100 to 500 nM	Cc1ncsc1-c1ccc([C@H](C)NC(=O)[C@@H]2C[C@@H](O)CN2C(=O)[C@@H](NC(=O)C2CCN(c3ccc(S(=O)(=O)NC(=O)c4nc(N5CCc6cccc(C(=O)Nc7nc8ccccc8s7)c6C5)ccc4-c4cnn(CC5(CCCN6CCN(C)CC6)CCCCC5)c4C)cc3)CC2)C(C)(C)C)cc1 [I-256]
< 50%	–	Cc1ncsc1-c1ccc(CNC(=O)[C@@H]2C[C@@H](O)CN2C(=O)[C@@H](NC(=O)C2(F)CC2)C(C)(C)C)c(OC2CCN(CC[C@H](CSc3ccccc3)Nc3ccc(S(=O)(=O)NC(=O)c4ccc(N5CCN(CC6=C(c7ccc(Cl)cc7)CCC(C)(C)C6)CC5)cc4)cc3S(=O)(=O)C(F)(F)F)CC2)c1 [I-281]
> 75%	10 to 100 nM	Cc1ncsc1-c1ccc([C@H](C)NC(=O)[C@@H]2C[C@@H](O)CN2C(=O)[C@@H](NC(=O)N2CCN(c3ccc(S(=O)(=O)NC(=O)c4nc(N5CCc6cccc(C(=O)Nc7nc8ccccc8s7)c6C5)ccc4-c4cnn(CC5CCCCC5)c4C)cc3)CC2)C(C)(C)C)cc1 [I-261]
< 50%	> 1000 nM	Cc1ncsc1-c1ccc(CNC(=O)N2C[C@@H](O)CC2C(=O)[C@@H](NC(=O)C2(F)CC2)C(C)(C)C)c(O[C@H]2C[C@H](N3CCC(NC(=O)c4nc(N5CCc6cccc(C(=O)Nc7nc8ccccc8s7)c6C5)ccc4-c4cnn(CC5CCCCC5)c4C)CC3)C2)c1 (stereo partly shown) [I-269]
> 75%	10 to 100 nM	C#Cc1ccc(CNC(=O)[C@@H]2C[C@@H](O)CN2C(=O)[C@@H](NC(=O)C2CCN(c3ccc(S(=O)(=O)NC(=O)c4nc(N5CCc6cccc(C(=O)Nc7nc8ccccc8s7)c6C5)ccc4-c4cnn(CC5CCCCC5)c4C)cc3)CC2)C(C)(C)C)c(OCCO)c1 [I-259]
> 75%	10 to 100 nM	Cc1ncsc1-c1ccc([C@H](C)NC(=O)[C@@H]2C[C@@H](O)CN2C(=O)[C@@H](NC(=O)C2CCN(c3ccc(S(=O)(=O)NC(=O)c4nc(N5CCc6cccc(C(=O)Nc7nc8ccccc8s7)c6C5)ccc4-c4cnn(CC5CCCCC5)c4C)c(Cl)c3)CC2)C(C)(C)C)cc1 [I-276]
> 75%	< 10 nM	C#Cc1ccc([C@H](C)NC(=O)[C@@H]2C[C@@H](O)CN2C(=O)[C@@H](NC(=O)C2CCN(c3ccc(S(=O)(=O)NC(=O)c4nc(N5CCc6cccc(C(=O)Nc7nc8ccccc8s7)c6C5)ccc4-c4cnn(CC5CCCCC5)c4C)cc3)CC2)C(C)(C)C)cc1 [I-253]
